From patent publication US20230040597A1, “USE OF NICOLSAMIDE FORMULATIONS FOR ANTIVIRAL THERAPY” (priority 2020, published 2023)
pEC50: −log10 of the molar value. ≈ marks a conversion by molar mass, not a printed value. Where two headings read alike, the source gives them in different places.

Columns and labels:
[1] = Drug-excipient compatibility study (related substances of binary mixtures); format: physicochemical
Procedure: Proposed drug to excipient ratio was selected based on the function of the excipient and maximum concentration to be used. Drug and excipient binary mixtures were prepared by uniform mixing. The blends were packed in clear glass vials and the compatibility was evaluated in closed conditions. In the closed-vial study, the dry mix samples were filled in vials with screw stopper fitting covered with parafilm and stored at 40° C./75% RH, 25° C./60% RH and 2° C.-8° C. storage condition up to 4 weeks. Samples at 40° C./75% RH and 25° C./60% RH were checked for physical description and analyzed for related substances, initially, at 2 weeks and at 4 weeks. Ratio of drug substance to excipients in blend for the compatibility study, are as follows: a) niclosamide:gelling agents/mucoadhesive agents was 1:15; b) niclosamide:solvents/co-solvents was 1:5; c) niclosamide:pH adjusting agents/neutralizing agents was 1:1; and d) niclosamide: preservatives/anti-oxidants was 1:0.5. Summary of physical description and related substances analysis of binary mixtures of API & excipients at initial and 40° C./75% RH-4 weeks condition are presented below in Table 8.
The impurities detected were as follows: Impurity-1 (5-chloro salicylic acid); Impurity-2 (2-chloro-4-nitro aniline); Impurity-3 (N-(2-chloro-4-nitrophenyl)-2-hydroxybenzamide); Impurity-4 (3,5-dichloro-N-(2-chloro-4-nitrophenyl)-2-hydroxybenzamide); and Impurity-5 (3-chloro-N-(2-chloro-4-nitrophenyl)-2-hydroxybenzamide).

human sperm = assay: Dose-dependent effect of niclosamide on sperm motility in fresh human semen; format: cell-based
Procedure: FIG. 1 is a graph depicting the dose dependent effect of niclosamide dissolved in DMSO, on sperm motility. Fresh human semen samples were mixed with the different concentrations of niclosamide in vitro, followed by analysis of sperm motility within 2 minutes. The x-axis depicts the different concentrations of niclosamide mixed with the semen sample. The x-axis, from Left to Right: the gray bar depicts an untreated semen sample, the blue bar depicts a vehicle control, and the eight pink bars depict the increasing concentrations of niclosamide tested. […] The y-axis depicts the percentage (%) inhibition in sperm motility of each semen sample treated with a concentration of niclosamide o normalized to the sperm motility of a control sample. Change in sperm motility relative to control treated sample is shown as mean +/−standard error of the mean (S.E.M.) for the aggregate of individual experiments.
Sperm motility is a functional measurement of the sperm themselves. Sperm may be sampled directly from semen or from washed sperm samples, and assessed for motility either manually or by CASA (Computer Assisted Sperm Analysis) (Chapter 59—Male Reproductive System. Systems Toxicologic Pathology. Dianne M. Creasy, Robert E. Chapin, in Haschek and Rousseaux's Handbook of Toxicologic Pathology (Third Edition), 2013; Amann R P et al. Computer-assisted sperm analysis (CASA): capabilities and potential developments. Theriogenology. 2014 Jan. 1; 81(1):5-17).
Sperm motility (expressed as %) may be evaluated in duplicate within 1 h of semen collection, by counting moving and nonmoving sperm in several microscopic fields. […] In preferred embodiments, only complete spermatozoa (head with tail) are included in such counts. Slow-moving sperm (class B+C) can be easily and accurately counted compared with rapidly moving (class A) sperm. A multi-button tally, preferably a digital one, is used to differentially count such motility (for additional detail, see Chapter 23: Standardized semen analysis and quality control management for multicenter male reproductive toxicology clinical trials, Sikka S. C. et al., in Bioenvironmental Issues Affecting Men's Reproductive and Sexual Health, 2018, the contents of which are incorporated herein by reference in their entirety).
After 2 minutes of incubation with the formulation, the semen samples were collected and analyzed for sperm motility. […] Data were collected within 2 minutes after mixing the formulation in gel form, with fresh semen, so the effects are instantaneous. As for timing, the gel may be applied 15-20 minutes prior to intercourse to allow gelling to fully occur. Furthermore, the gel may not be efficacious after residing in the vagina for longer than 1 hour.

SARS-CoV-2 = assay: microbe, parasite or virus in culture; format: cell-based; details: Severe acute respiratory syndrome coronavirus 2, Vero C1008; Vero E6 cells; reporter SARS-CoV-2 MOI of 0.1; luciferase at 24 h post-infection; 0.5% DMSO; read-out: antiviral EC50
[2] = format: physicochemical
Procedure: Saturation solubility of niclosamide was studied in the solvents, to know the highest concentration of niclosamide that can be solubilized, as depicted in table 6.
Heating and stirring improved solubilization of niclosamide in polyethylene glycol. […] In further formulation studies, drug substance concentration >7% w/w was desired, so 65° C. of temperature was used for solubilization of API.

physchem = details: 25 °C, water
[3] = Saturation solubility in buffers (shake flask method); details: 0.1 N HCl, 0.01 N HCl, pH 3.0 and 4.0 acid phthalate buffer, pH 4.5 and 5.1 acetate buffer
[4] = 40° C./75% RH, 4 Weeks, closed vial

Q: Which results are given for `O=C(Nc1ccc([N+](=O)[O-])cc1Cl)c1cc(Cl)ccc1O` [niclosamide]?
A: Imp-3 [1, 4]: 0.026%; Imp-4 [1, 4]: 0.012%; Imp-5 [1, 4]: 0.014%; Single Max Unk Imp [1, 4]: 0.007%; Total Impurities [1, 4]: 0.06%; Imp-3 ([1]; Initial): 0.029%; Imp-4 ([1]; Initial): 0.009%; Single Max Unk Imp ([1]; Initial): 0.010%; Total Impurities ([1]; Initial): 0.05%; Solubility (pH 1.2): Nil; Solubility (pH 2): Nil; Solubility (pH 3): Nil; Solubility (pH 4): Nil; Solubility (pH 4.5): Nil; Solubility (pH 5.1): Nil; Minimum dose to see effect (inhibits sperm motility) (human sperm): 4 mM; Minimum dose to see effect (inhibits sperm motility), Amount (w/w) (human sperm): 0.13%; inhibition at 10000 µM (human sperm; Sperm, 2 min, 10 mM niclosamide, fresh human semen, within 2 minutes, relative to control, read-out: percentage (%) inhibition in sperm motility): 100%; Concentration giving complete inhibition of sperm motility (human sperm; semen sample vs control sample, 2 minutes incubation): ≥ 10 mM; pEC50 (SARS-CoV-2): 6.82; maximum solubility [2]: 5 % w/w; Solubility (physchem): 5 µg/mL (≈ 15.3 µM); solubility in studied buffers [3]: insoluble
